Test results published in patent US20250059198A1, “BRM DEGRADING COMPOUNDS AND ASSOCIATED METHODS OF USE” (Arvinas Operations, Inc., priority 2021, published 2025).

Biological target: T1, BRM (Homo sapiens, UniProt P51531)
T1 construct: Western Blot Screen of BRM Degradation in SW1573 Cells; endogenous in cells; host or cells: SW1573 cells
Experiment: BRM degradation (Dmax and DC50) in SW1573 cells, Western blot screen / In-Cell Western screen
Format: cell-based
Details: overnight (18-20 hours) treatment; for Dmax: read-out: Dmax (%)** (% degraded)
Procedure, shortened: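 Dmax and DC50 were derived from BRM levels normalised to an alpha-tubulin control, measured by chemiluminescent Western blotting of lysates or by PFA-fixed In-Cell Western on LI-COR Odyssey. SW1573 cells received compound overnight (18–20 h, 0.1% DMSO final).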

T1 sequence (P51531 whole entry): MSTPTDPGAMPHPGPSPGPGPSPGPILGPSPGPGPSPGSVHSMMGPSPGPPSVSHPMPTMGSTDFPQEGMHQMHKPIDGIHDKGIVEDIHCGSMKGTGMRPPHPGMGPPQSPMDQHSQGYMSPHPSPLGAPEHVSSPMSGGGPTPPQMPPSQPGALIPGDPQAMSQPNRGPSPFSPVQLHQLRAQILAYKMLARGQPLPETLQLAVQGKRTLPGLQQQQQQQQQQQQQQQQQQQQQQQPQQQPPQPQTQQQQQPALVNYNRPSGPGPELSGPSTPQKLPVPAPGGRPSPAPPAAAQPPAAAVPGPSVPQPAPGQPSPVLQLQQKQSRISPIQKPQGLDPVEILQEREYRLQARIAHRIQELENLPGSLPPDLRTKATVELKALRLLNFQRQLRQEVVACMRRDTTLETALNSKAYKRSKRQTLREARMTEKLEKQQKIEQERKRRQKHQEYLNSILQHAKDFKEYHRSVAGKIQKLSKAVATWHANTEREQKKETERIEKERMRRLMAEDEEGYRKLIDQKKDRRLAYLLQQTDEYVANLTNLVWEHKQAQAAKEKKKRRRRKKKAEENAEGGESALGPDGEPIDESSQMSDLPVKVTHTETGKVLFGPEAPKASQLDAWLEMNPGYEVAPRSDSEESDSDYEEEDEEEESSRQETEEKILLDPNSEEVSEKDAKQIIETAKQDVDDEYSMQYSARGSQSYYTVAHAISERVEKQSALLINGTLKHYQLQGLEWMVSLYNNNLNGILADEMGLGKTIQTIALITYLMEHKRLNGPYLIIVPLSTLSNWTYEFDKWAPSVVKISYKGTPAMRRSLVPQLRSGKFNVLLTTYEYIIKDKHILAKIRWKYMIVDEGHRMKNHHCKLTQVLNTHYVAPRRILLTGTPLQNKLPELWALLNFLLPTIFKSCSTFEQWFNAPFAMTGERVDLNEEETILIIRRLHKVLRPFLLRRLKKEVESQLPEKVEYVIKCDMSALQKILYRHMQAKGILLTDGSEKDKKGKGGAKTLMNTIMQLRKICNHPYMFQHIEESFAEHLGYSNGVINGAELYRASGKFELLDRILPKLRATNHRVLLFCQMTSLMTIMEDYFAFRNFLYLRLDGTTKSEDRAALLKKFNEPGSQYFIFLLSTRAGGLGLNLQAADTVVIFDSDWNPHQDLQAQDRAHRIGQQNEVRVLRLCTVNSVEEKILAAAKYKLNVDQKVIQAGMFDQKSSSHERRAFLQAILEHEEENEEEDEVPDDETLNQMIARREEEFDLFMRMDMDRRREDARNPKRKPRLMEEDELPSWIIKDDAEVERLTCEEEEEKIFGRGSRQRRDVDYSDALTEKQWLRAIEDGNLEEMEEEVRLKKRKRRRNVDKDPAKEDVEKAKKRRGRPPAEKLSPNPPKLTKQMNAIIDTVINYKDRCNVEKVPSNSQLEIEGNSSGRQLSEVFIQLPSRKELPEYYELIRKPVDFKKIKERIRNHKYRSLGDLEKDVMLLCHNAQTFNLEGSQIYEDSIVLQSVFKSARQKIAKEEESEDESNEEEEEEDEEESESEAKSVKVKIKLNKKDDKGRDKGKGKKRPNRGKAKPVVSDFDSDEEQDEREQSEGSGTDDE

| SMILES | DC50 | Dmax |
| --- | --- | --- |
| Cc1ncsc1-c1ccc([C@H](C)NC(=O)[C@@H]2C[C@@H](O)CN2C(=O)[C@@H](c2cc(N3CCC(CN4CCC5(CC4)CC(N4CCN(C)[C@H](CN6C7CCC6CN(c6cc(-c8ccccc8O)nnc6N)C7)C4)C5)CC3)no2)C(C)C)cc1 [Compound 132, (2S,4R)-1-[(2R)-2-{3-[4-({2-[(3S)-3-({3-[3-amino-6-(2-hydroxyphenyl)pyridazin-4-yl]-3,8-diazabicyclo[3.2.1]octan-8-yl}methyl)-4-methylpiperazin-1-yl]-7-azaspiro[3.5]nonan-7-yl}methyl)piperidin-1-yl]-1,2-oxazol-5-yl}-3-methylbutanoyl]-4-hydroxy-N-[(1S)-1-[4-(4-methyl-1,3-thiazol-5-yl)phenyl]ethyl]pyrrolidine-2-carboxamide] | < 2.5 nM | > 75% |
| Cc1ncsc1-c1ccc([C@H](C)NC(=O)[C@@H]2C[C@@H](O)CN2C(=O)[C@@H](c2cc(N3CCC(CN4CCC5(CC4)CC(N4CCN(C)[C@@H](CN6C7CCC6CN(c6cc(-c8ccccc8O)nnc6N)C7)C4)C5)CC3)no2)C(C)C)cc1 [Compound 133, (2S,4R)-1-[(2R)-2-{3-[4-({2-[(3R)-3-({3-[3-amino-6-(2-hydroxyphenyl)pyridazin-4-yl]-3,8-diazabicyclo[3.2.1]octan-8-yl}methyl)-4-methylpiperazin-1-yl]-7-azaspiro[3.5]nonan-7-yl}methyl)piperidin-1-yl]-1,2-oxazol-5-yl}-3-methylbutanoyl]-4-hydroxy-N-[(1S)-1-[4-(4-methyl-1,3-thiazol-5-yl)phenyl]ethyl]pyrrolidine-2-carboxamide] | < 2.5 nM | > 75% |
| Cc1ncsc1-c1ccc([C@H](C)NC(=O)[C@@H]2C[C@@H](O)CN2C(=O)[C@H](c2cc(OCCOC(=O)N3CCC(O[C@H]4C[C@H](Oc5cc(N6C7CCC6CN(c6cc(-c8ccccc8O)nnc6N)C7)ccn5)C4)CC3)no2)C(C)C)cc1 [Compound 134, 2-({5-[(2S)-1-[(2S,4R)-4-hydroxy-2-{[(1S)-1-[4-(4-methyl-1,3-thiazol-5-yl)phenyl]ethyl]carbamoyl}pyrrolidin-1-yl]-3-methyl-1-oxobutan-2-yl]-1,2-oxazol-3-yl}oxy)ethyl 4-[(1r,3r)-3-[(4-{3-[3-amino-6-(2-hydroxyphenyl)pyridazin-4-yl]-3,8-diazabicyclo[3.2.1]octan-8-yl}pyridin-2-yl)oxy]cyclobutoxy]piperidine-1-carboxylate] | ≥ 30 nM |  |
| Cc1ncsc1-c1ccc([C@H](C)NC(=O)[C@@H]2C[C@@H](O)CN2C(=O)[C@H](c2cc(N3CCC(O[C@H]4CC[C@H](Oc5cc(N6C7CCC6CN(c6cc(-c8ccccc8O)nnc6N)C7)ccn5)CC4)CC3)no2)C(C)C)cc1 [Compound 135, (2S,4R)-4-hydroxy-N-[(1S)-1-[4-(4-methyl-1,3-thiazol-5-yl)phenyl]ethyl]-1-[(2S)-3-methyl-2-[3-(4-{[(1r,4r)-4-[(4-{3-[3-amino-6-(2-hydroxyphenyl)pyridazin-4-yl]-3,8-diazabicyclo[3.2.1]octan-8-yl}pyridin-2-yl)oxy]cyclohexyl]oxy}piperidin-1-yl)-1,2-oxazol-5-yl]butanoyl]pyrrolidine-2-carboxamide] | ≥ 30 nM |  |
| Cc1ncsc1-c1ccc([C@H](C)NC(=O)[C@@H]2C[C@@H](O)CN2C(=O)[C@@H](c2cc(N3CCC(O[C@H]4CC[C@H](Oc5cc(N6C7CCC6CN(c6cc(-c8ccccc8O)nnc6N)C7)ccn5)CC4)CC3)no2)C(C)C)cc1 [Compound 136, (2S,4R)-4-hydroxy-N-[(1S)-1-[4-(4-methyl-1,3-thiazol-5-yl)phenyl]ethyl]-1-[(2R)-3-methyl-2-[3-(4-{[(1r,4r)-4-[(4-{3-[3-amino-6-(2-hydroxyphenyl)pyridazin-4-yl]-3,8-diazabicyclo[3.2.1]octan-8-yl}pyridin-2-yl)oxy]cyclohexyl]oxy}piperidin-1-yl)-1,2-oxazol-5-yl]butanoyl]pyrrolidine-2-carboxamide] | < 2.5 nM | > 75% |
| CC(C)[C@H](C(=O)N1C[C@H](O)C[C@H]1C(=O)N[C@@H](C)c1ccc(C#N)cc1)c1cc(N2CCC(C(=O)N3CCC(O[C@H]4C[C@H](Oc5cc(N6C7CCC6CN(c6cc(-c8ccccc8O)nnc6N)C7)ccn5)C4)CC3)CC2)no1 [Compound 137, (2S,4R)-N-[(1S)-1-(4-cyanophenyl)ethyl]-4-hydroxy-1-[(2S)-3-methyl-2-[3-(4-{4-[(1r,3r)-3-[(4-{3-[3-amino-6-(2-hydroxyphenyl)pyridazin-4-yl]-3,8-diazabicyclo[3.2.1]octan-8-yl}pyridin-2-yl)oxy]cyclobutoxy]piperidine-1-carbonyl}piperidin-1-yl)-1,2-oxazol-5-yl]butanoyl]pyrrolidine-2-carboxamide] | ≥ 30 nM |  |
| CC(C)[C@@H](C(=O)N1C[C@H](O)C[C@H]1C(=O)N[C@@H](C)c1ccc(C#N)cc1)c1cc(N2CCC(C(=O)N3CCC(O[C@H]4C[C@H](Oc5cc(N6C7CCC6CN(c6cc(-c8ccccc8O)nnc6N)C7)ccn5)C4)CC3)CC2)no1 [Compound 138, (2S,4R)-N-[(1S)-1-(4-cyanophenyl)ethyl]-4-hydroxy-1-[(2R)-3-methyl-2-[3-(4-{4-[(1r,3r)-3-[(4-{3-[3-amino-6-(2-hydroxyphenyl)pyridazin-4-yl]-3,8-diazabicyclo[3.2.1]octan-8-yl}pyridin-2-yl)oxy]cyclobutoxy]piperidine-1-carbonyl}piperidin-1-yl)-1,2-oxazol-5-yl]butanoyl]pyrrolidine-2-carboxamide] | < 2.5 nM | > 75% |
| CC(C)[C@H](C(=O)N1C[C@H](O)C[C@H]1C(=O)N[C@@H](C)c1ccc(C#N)cc1)c1cc(N2CCN(C(=O)N3CCC(O[C@H]4C[C@H](Oc5cc(N6C7CCC6CN(c6cc(-c8ccccc8O)nnc6N)C7)ccn5)C4)CC3)CC2)no1 [Compound 139, (2S,4R)-N-[(1S)-1-(4-cyanophenyl)ethyl]-4-hydroxy-1-[(2S)-3-methyl-2-[3-(4-{4-[(1r,3r)-3-[(4-{3-[3-amino-6-(2-hydroxyphenyl)pyridazin-4-yl]-3,8-diazabicyclo[3.2.1]octan-8-yl}pyridin-2-yl)oxy]cyclobutoxy]piperidine-1-carbonyl}piperazin-1-yl)-1,2-oxazol-5-yl]butanoyl]pyrrolidine-2-carboxamide] | ≥ 30 nM |  |
| CC(C)[C@@H](C(=O)N1C[C@H](O)C[C@H]1C(=O)N[C@@H](C)c1ccc(C#N)cc1)c1cc(N2CCN(C(=O)N3CCC(O[C@H]4C[C@H](Oc5cc(N6C7CCC6CN(c6cc(-c8ccccc8O)nnc6N)C7)ccn5)C4)CC3)CC2)no1 [Compound 140, (2S,4R)-N-[(1S)-1-(4-cyanophenyl)ethyl]-4-hydroxy-1-[(2R)-3-methyl-2-[3-(4-{4-[(1r,3r)-3-[(4-{3-[3-amino-6-(2-hydroxyphenyl)pyridazin-4-yl]-3,8-diazabicyclo[3.2.1]octan-8-yl}pyridin-2-yl)oxy]cyclobutoxy]piperidine-1-carbonyl}piperazin-1-yl)-1,2-oxazol-5-yl]butanoyl]pyrrolidine-2-carboxamide] | < 2.5 nM | > 75% |
| Cc1ncsc1-c1ccc([C@H](C)NC(=O)[C@@H]2C[C@@H](O)CN2C(=O)[C@@H](c2cc(N3CCC(CN4CC5(CC(N6CCO[C@H](CN7C8CCC7CN(c7cc(-c9ccccc9O)nnc7N)C8)C6)C5)C4)CC3)no2)C(C)C)cc1 [Compound 141, (2S,4R)-1-[(2R)-2-{3-[4-({6-[(2S)-2-({3-[3-amino-6-(2-hydroxyphenyl)pyridazin-4-yl]-3,8-diazabicyclo[3.2.1]octan-8-yl}methyl)morpholin-4-yl]-2-azaspiro[3.3]heptan-2-yl}methyl)piperidin-1-yl]-1,2-oxazol-5-yl}-3-methylbutanoyl]-4-hydroxy-N-[(1S)-1-[4-(4-methyl-1,3-thiazol-5-yl)phenyl]ethyl]pyrrolidine-2-carboxamide] | < 2.5 nM | > 75% |
| Cc1ncsc1-c1ccc([C@H](C)NC(=O)[C@@H]2C[C@@H](O)CN2C(=O)[C@@H](c2cc(N3CCC(CN4CCCC5(CC(N6CCO[C@H](CN7C8CCC7CN(c7cc(-c9ccccc9O)nnc7N)C8)C6)C5)C4)CC3)no2)C(C)C)cc1 (stereo partly drawn) [Compound 142, (2S,4R)-1-[(2R)-2-{3-[4-({2-[(2S)-2-({3-[3-amino-6-(2-hydroxyphenyl)pyridazin-4-yl]-3,8-diazabicyclo[3.2.1]octan-8-yl}methyl)morpholin-4-yl]-6-azaspiro[3.5]nonan-6-yl}methyl)piperidin-1-yl]-1,2-oxazol-5-yl}-3-methylbutanoyl]-4-hydroxy-N-[(1S)-1-[4-(4-methyl-1,3-thiazol-5-yl)phenyl]ethyl]pyrrolidine-2-carboxamide] | < 2.5 nM | > 75% |
| Cc1ncsc1-c1ccc([C@H](C)NC(=O)[C@@H]2C[C@@H](O)CN2C(=O)[C@@H](c2cc(N3CCC(CN4CCC5(CCC5N5CCO[C@H](CN6C7CCC6CN(c6cc(-c8ccccc8O)nnc6N)C7)C5)CC4)CC3)no2)C(C)C)cc1 (stereo partly drawn) [Compound 143, (2S,4R)-1-[(2R)-2-{3-[4-({1-[(2S)-2-({3-[3-amino-6-(2-hydroxyphenyl)pyridazin-4-yl]-3,8-diazabicyclo[3.2.1]octan-8-yl}methyl)morpholin-4-yl]-7-azaspiro[3.5]nonan-7-yl}methyl)piperidin-1-yl]-1,2-oxazol-5-yl}-3-methylbutanoyl]-4-hydroxy-N-[(1S)-1-[4-(4-methyl-1,3-thiazol-5-yl)phenyl]ethyl]pyrrolidine-2-carboxamide] | < 2.5 nM | > 75% |
| Cc1ncsc1-c1ccc([C@H](C)NC(=O)[C@@H]2C[C@@H](O)CN2C(=O)C(c2cc(N3CCC(OC(=O)N4CCC(Oc5cc(N6CCN(c7cc(-c8ccccc8O)nnc7N)CC6)ccn5)CC4)CC3)no2)C(C)C)cc1 (stereo partly drawn) [Compound 144, 1-(5-{1-[(2S,4R)-4-hydroxy-2-{[(1S)-1-[4-(4-methyl-1,3-thiazol-5-yl)phenyl]ethyl]carbamoyl}pyrrolidin-1-yl]-3-methyl-1-oxobutan-2-yl}-1,2-oxazol-3-yl)piperidin-4-yl 4-[(4-{4-[3-amino-6-(2-hydroxyphenyl)pyridazin-4-yl]piperazin-1-yl}pyridin-2-yl)oxy]piperidine-1-carboxylate] | 2.5 to 10 nM | > 75% |
